Reference: US20230066946A1, “1,5-DIPHENYLPYRAZOLYL-3-OXYALKYL ACIDS AND 1-PHENYL-5-THIENYLPYRAZOLYL-3-OXYALKYL ACIDS AND THE USE THEREOF FOR CONTROL OF UNWANTED PLANT GROWTH” (Bayer Aktiengesellschaft, priority 2019, published 2023)

How the values were obtained:
ALOMY [1] = assay: Post-emergence herbicidal action against ALOMY; assay type: in vivo, Alopecurus myosuroides; settings: 1280 g/ha, post-emergence at one-leaf stage, rated visually after about 3 weeks vs untreated controls
Description: (§1) [table] Seeds of mono- and dicotyledonous weed plants are placed in plastic pots in sandy loam soil (twin sowing with one species each of mono- or dicotyledonous weed plants per pot), covered with soil and cultivated in a greenhouse under controlled growth conditions. 2 to 3 weeks after sowing, the test plants are treated at the one-leaf stage. The compounds of the invention, formulated in the form of wettable powders (WP) or as emulsion concentrates (EC), are applied to the green parts of the plants as aqueous suspension or emulsion with addition of 0.5% additive at a water application rate equivalent to 600 litres per hectare. After the test plants have been kept in the greenhouse under optimum growth conditions for about 3 weeks, the activity of the preparations is rated visually in comparison to untreated controls. For example, 100% activity=the plants have died, 0% activity=like control plants. Tables 5.1-5.16 below show the effects of selected compounds of the general formula (I) according to Tables 1 to 3 on various harmful plants at an application rate corresponding to 1280 or 320 g/ha, which have been obtained by the aforementioned experimental method.

VERPE [2] = assay: Post-emergence herbicidal action against VERPE; assay type: in vivo, Veronica persica; settings: 320 g/ha, visual rating about 3 weeks after treatment
In short: (§2)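 Each pot held twin-sown weeds in sandy loam, treated post-emergence 2 to 3 weeks after sowing at the one-leaf stage. Compound was given as a foliar spray at 1280 or 320 g/ha in 600 litres per hectare water with 0.5% additive. Visual scoring against untreated controls followed after about 3 weeks.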

AMARE [3] = assay: Pre-emergence herbicidal action against AMARE; assay type: in vivo, Amaranthus retroflexus; settings: scored visually after about 3 weeks vs untreated controls; for Pre-emergence action at 320 g/ha against AMARE in %: 100% = plants have died, 0% = like control plants; for Pre-emergence action against AMARE in %: 1280 g/ha
In short: (§3)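 Visual percent activity (100% = plants dead, 0% = like control) scored about 3 weeks after pre-emergence treatment in greenhouse. Compounds as WP or EC, applied to covering soil surface with 0.5% additive, 600 L/ha water, at 1280 or 320 g/ha.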

ALOMY [4] = assay: Pre-emergence herbicidal action against ALOMY; assay type: in vivo, Alopecurus myosuroides; settings: scored visually after about 3 weeks vs untreated controls, 100% = plants have died, 0% = like control plants
Text: (§4) Seeds of mono- and dicotyledonous weed plants are placed in plastic pots in sandy loam soil (doubly sown with one species each of mono- or dicotyledonous weed plants per pot) and covered with soil. The compounds of the invention, formulated in the form of wettable powders (WP) or as emulsion concentrates (EC), are then applied onto the surface of the covering soil as aqueous suspension or emulsion with addition of 0.5% additive at a water application rate equivalent to 600 litres per hectare. After the treatment, the pots are placed in a greenhouse and kept under good growth conditions for the trial plants. After about 3 weeks, the effect of the preparations is scored visually in comparison with untreated controls as percentages. For example, 100% activity=the plants have died, 0% activity=like control plants. [table] Tables 4.1-4.15 below show the effects of selected compounds of the general formula (I) according to Tables 1 to 3 on various harmful plants at an application rate corresponding to 1280 or 320 g/ha, which have been obtained by the aforementioned experimental method.

PHBPU = assay: Post-emergence herbicidal action against PHBPU; assay type: in vivo, Pharbitis purpurea; settings: 320 g/ha, visual rating about 3 weeks after treatment
In short: as §2

MATIN [5] = assay: Pre-emergence herbicidal action against MATIN; assay type: in vivo, Matricaria inodora; settings: 1280 g/ha, scored visually after about 3 weeks vs untreated controls
Text: as §4

SETVI [6] = assay: Post-emergence herbicidal action against SETVI; assay type: in vivo, Setaria viridis; settings: 1280 g/ha, post-emergence at one-leaf stage, rated visually after about 3 weeks vs untreated controls
In short: as §2

STEME [7] = assay: Post-emergence herbicidal action against STEME; assay type: in vivo, Stellaria media; settings: visual rating about 3 weeks after treatment
In short: as §2

harmful plants [8] = assay: Post-emergence herbicidal action, summary of Tables 5.1-5.16; assay type: in vivo; settings: result in words
Description: as §1, with “Seeds” for “[table] Seeds”, “method. As the results from Tables 5.1-5.16 show, compounds of the invention have good herbicidal post-emergence efficacy against a broad spectrum of weed grasses and weeds. […] For example, compounds Nos. I-002, I-006, I-022, I-056 and I-072 applied by the post-emergence method have very good herbicidal action (80% to 100% herbicidal action) against harmful plants such as Alopecurus myosuroides, Amaranthus retroflexus, Matricaria inodora, Setaria viridis, Pharbitis purpurea and Stellaria media at an application rate of 1.28 kg of active substance or less per hectare.” for “method.”

VERPE [9] = assay: Pre-emergence herbicidal action against VERPE; assay type: in vivo, Veronica persica; settings: 320 g/ha, scored visually after about 3 weeks vs untreated controls
In short: as §3

AMARE [10] = assay: Post-emergence herbicidal action against AMARE; assay type: in vivo, Amaranthus retroflexus; settings: visual rating about 3 weeks after treatment
In short: as §2

harmful plants [11] = assay: Pre-emergence herbicidal action, summary of Tables 4.1-4.15; assay type: in vivo; settings: result in words
Text: as §4, with “plants.” for “plants. [table] Tables 4.1-4.15 below show the effects of selected compounds of the general formula (I) according to Tables 1 to 3 on various harmful plants at an application rate corresponding to 1280 or 320 g/ha, which have been obtained by the aforementioned experimental method.”
Tables 4.1-4.15 below show the effects of selected compounds of the general formula (I) according to Tables 1 to 3 on various harmful plants at an application rate corresponding to 1280 or 320 g/ha, which have been obtained by the aforementioned experimental method.
For example, compounds no. I-008, I-056, I-057, I-061, I-067, I-070 and I-072 applied by the pre-emergence method have very good action (80% to 100% herbicidal action) against harmful plants such as Alopecurus myosuroides, Amaranthus retroflexus, Matricaria inodora, Polygonum convolvulus, Setaria viridis and Stellaria media at an application rate of 1.28 kg of active substance or less per hectare.

STEME [12] = assay: Pre-emergence herbicidal action against STEME; assay type: in vivo, Stellaria media; settings: scored visually after about 3 weeks vs untreated controls
In short: as §3

MATIN [13] = assay: Post-emergence herbicidal action against MATIN; assay type: in vivo, Matricaria inodora; settings: visual rating about 3 weeks after treatment
In short: as §2

ECHCG [14] = assay: Post-emergence herbicidal action against ECHCG; assay type: in vivo, Echinochloa crus-galli; settings: 1280 g/ha, post-emergence at one-leaf stage, rated visually after about 3 weeks vs untreated controls
In short: as §2

CYPES = assay: Pre-emergence herbicidal action against CYPES; assay type: in vivo, Cyperus esculentus; settings: scored visually after about 3 weeks vs untreated controls, 100% = plants have died, 0% = like control plants
Text: as §4

POLCO [15] = assay: Post-emergence herbicidal action against POLCO; assay type: in vivo, Polygonum convolvulus; settings: 320 g/ha, visual rating about 3 weeks after treatment
In short: as §2

POLCO [16] = assay: Pre-emergence herbicidal action against POLCO; assay type: in vivo, Polygonum convolvulus; settings: 320 g/ha, scored visually after about 3 weeks vs untreated controls
In short: as §3

SETVI [17] = assay: Pre-emergence herbicidal action against SETVI; assay type: in vivo, Setaria viridis; settings: 1280 g/ha, scored visually after about 3 weeks vs untreated controls
In short: as §3

VIOTR [18] = assay: Pre-emergence herbicidal action against VIOTR; assay type: in vivo, Viola tricolor; settings: 1280 g/ha, scored visually after about 3 weeks vs untreated controls
Text: as §4

VIOTR [19] = assay: Post-emergence herbicidal action against VIOTR; assay type: in vivo, Viola tricolor; settings: 320 g/ha, visual rating about 3 weeks after treatment
In short: as §2

ECHCG [20] = assay: Pre-emergence herbicidal action against ECHCG; assay type: in vivo, Echinochloa crus-galli; settings: scored visually after about 3 weeks vs untreated controls, 100% = plants have died, 0% = like control plants
In short: as §3

SMILES | Post-emergence action against ALOMY in % (ALOMY [1]) | Post-emergence action against VERPE in % (VERPE [2]) | Pre-emergence action at 320 g/ha against AMARE in % (AMARE [3]) | Pre-emergence action against AMARE in % (AMARE [3]) | Pre-emergence action at 1280 g/ha against ALOMY in % (ALOMY [4]) | Post-emergence action against PHBPU in % (PHBPU) | Pre-emergence action against MATIN in % (MATIN [5]) | Post-emergence action against SETVI in % (SETVI [6]) | Post-emergence action against STEME in % (STEME [7]; 320 g/ha) | Post-emergence action against STEME in % (STEME [7]; 1280 g/ha) | herbicidal efficacy against harmful plants when applied post-emergence (harmful plants [8]) | Pre-emergence action against VERPE in % (VERPE [9]) | Post-emergence action against AMARE in % (AMARE [10]; 320 g/ha) | Post-emergence action against AMARE in % (AMARE [10]; 1280 g/ha) | herbicidal efficacy against harmful plants in the case of pre-emergence treatment (harmful plants [11]) | Pre-emergence action against STEME in % (STEME [12]; 320 g/ha) | Pre-emergence action against STEME in % (STEME [12]; 1280 g/ha) | Post-emergence action against MATIN in % (MATIN [13]; 1280 g/ha) | Post-emergence action against ECHCG in % (ECHCG [14]) | Pre-emergence action at 1280 g/ha against CYPES in % (CYPES) | other results
COC(=O)COc1nn(-c2ccccc2)c(-c2cccc(F)c2)c1Cl [I-002] | 80% | 80% | 100% | 100% | 80% | 80% | 100% | 80% | 80% | 90% | very good herbicidal efficacy | 100% | 80% | 90% | good herbicidal efficacy | 80% | 100% | 80% | 80% |  | 
COC(=O)COc1nn(-c2ccc(F)cc2)c(-c2ccc(F)cc2)c1Cl [I-006] | 80% |  | 80% | 100% |  | 80% |  | 90% |  | 80% | very good herbicidal efficacy |  |  | 100% |  |  | 100% | 80% |  | 100% | 
COC(=O)COc1nn(-c2ccc(Cl)cc2)c(-c2ccc(F)cc2)c1Cl [I-007] |  | 90% | 80% | 100% | 80% |  |  |  |  |  |  |  |  | 80% |  |  | 90% |  |  |  | 
COC(=O)COc1nn(-c2ccccc2)c(-c2ccc(F)cc2)c1Cl [I-008] |  | 90% | 100% | 100% | 100% |  | 90% |  | 90% | 90% |  | 90% | 80% | 80% | good herbicidal efficacy |  | 100% | 90% |  |  | Post-emergence action against POLCO in % (POLCO [15]): 80%; Pre-emergence action against POLCO in % (POLCO [16]): 80%; Pre-emergence action against SETVI in % (SETVI [17]): 90%; Post-emergence action against MATIN in % (MATIN [13]; 320 g/ha): 90%
COC(=O)COc1nn(-c2ccccc2)c(-c2cccc(F)c2)c1C#N [I-021] | 80% |  | 100% | 100% |  | 80% | 90% |  | 80% | 80% | very good herbicidal efficacy | 90% | 80% | 80% | good herbicidal efficacy |  | 90% | 80% | 80% | 100% | Pre-emergence action against VIOTR in % (VIOTR [18]): 90%
COC(=O)COc1nn(-c2ccccc2F)c(-c2ccccc2)c1Br [I-054] |  | 80% | 100% | 100% |  | 100% |  | 100% | 90% | 100% | very good herbicidal efficacy | 100% | 90% | 100% |  | 100% | 100% | 100% | 90% |  | Post-emergence action against VIOTR in % (VIOTR [19]): 90%; Post-emergence action against POLCO in % (POLCO [15]): 80%; Pre-emergence action against POLCO in % (POLCO [16]): 100%; Pre-emergence action against SETVI in % (SETVI [17]): 90%; Post-emergence action against MATIN in % (MATIN [13]; 320 g/ha): 90%; Pre-emergence action at 1280 g/ha against ECHCG in % (ECHCG [20]): 90%
